The values that follow come from the pKa sets of Baltruschat and Czodrowski (2020).

In the case of `Cc1ccc(O)c(CO)c1`, the pKa (acidic group) amounted to 10.2. Take `Clc1ccc2[nH]cnc2c1`: the pKa (basic group) stood at 4.86. The same measure, in the same setting: for `CCOc1nccc([O-])n1` the value was 8.2. Turning to `CC(C)c1ccc(Br)c(O)c(=O)c1`, the pKa (acidic group) came to 6.28. Turning to `Nc1cccc(Br)c1`, the pKa (basic group) worked out at 3.41.

Consider `O=C(O)c1csc([N+](=O)[O-])c1`, for which, for the setting “acidic group”, the pKa is 3.24. With `CCCCNN`, for the setting “basic group”, the pKa amounted to 7.82.

As for `Oc1cnoc1`, where the note is “acidic group”, the pKa worked out at 7.75. Still for that read-out and setting: the value for `CP(C)(=O)O` was 3.08. The same measure, in the same setting: the value for `CCNC(=S)OC(C)C` was 11.5; that for `O=C(O)CCc1ccc([N+](=O)[O-])cc1` was 4.54. In the case of `CSc1nc(C)cc(=O)n1C`, the pKa (basic group) was 0.9. The same measure, in the same setting: for `CN(C)c1cccnc1` the value was 6.67; for `Cc1ccnc([S-])n1`, 8. Consider `O=[PH]([O-])C(NCc1cccnc1)c1ccccc1O` (stereo not drawn), for which the pKa runs as follows: (acidic group) 12; (basic group) 8.05. As for `C[N+](C)(C)CCCc1ccccc1O`, the pKa (acidic group) came out at 9.78. The same measure, in the same setting: for `O=P1(O)CCCC1` the value was 2.51. Same read-out and setting: the value for `O=C([O-])c1ccc(O)c([N+](=O)[O-])c1` was 6.41. In turn, `OCCc1cccnc1` showed a pKa (basic group) of 5.38. Same read-out and setting: the value for `Cc1ccccc1C(=NCCCC[NH+](C)C)c1ccccc1C` was 5.18; that for `Nc1ccc2c(c1)CCC2` was 5.35.

On to `OC(O)c1cccnc1`, for which the pKa (acidic group) is 13.1.

For the compound `CCCCCCCCC(=O)OO`, the pKa (acidic group) is 8.23.

For `N#Cc1ccc(O[C@H]2O[C@@H](C(=O)O)[C@H](O)[C@@H](O)[C@@H]2O)cc1`, the pKa (acidic group) was determined as 3.22. Where the note is “basic group”, `OCCc1ccncc1` came in with a pKa of 5.68. On the same count and under the same terms, the value for `Nc1n[nH]c(N)c1/N=N/c1ccccc1` was 3.43.

Turning to `Nc1ccc2nnccc2c1`, the pKa (basic group) was determined as 5.04. On the same count and under the same terms, for `C/C=C(/C)C(=O)O[C@H]1CC[C@@]2(C)[C@@H]3CC[C@H]4[C@]5(O)C[C@H](O)[C@@]6(O)[C@@H](CN7C[C@@H](C)CC[C@H]7[C@@]6(C)O)[C@]5(O)C[C@@]42O[C@]13O` the value was 8.85.

`N#CC1C=CN(Cc2cccc(F)c2)C=C1C(N)=O` (stereo not drawn) had a pKa (acidic group) of 0.68. On the same count and under the same terms, for `O=C([O-])c1ccc(O)cc1` the value was 9.35; for `CCCC[NH2+]CC(=O)O`, 2.32. On to `OCCN1CCNCC1`, for which the pKa (basic group) worked out at 9.33. Where the note is “acidic group”, `O=C(O)c1cccc(-c2nnn[nH]2)c1` had a pKa of 3.74. `CC(C)c1cccnc1`: the pKa (basic group) was found to be 5.72.

In the case of `CN(CCCN)CCC[NH3+]`, the pKa (basic group) is 9.27. As to `CCCCCCP(=O)(O)CCCCCC`, the pKa (acidic group) amounted to 3.24. For `NC(=O)/C=C(\O)c1ccncc1`, the pKa (basic group) is 7.36. As to `NS(=O)(=O)c1ccc(/N=C/c2ccccc2O)cc1`, where the note is “acidic group”, the pKa is 6.63. Same read-out and setting: the value for `Oc1cccc(Cl)c1` was 8.96. On the same count and under the same terms, the value for `NC(=O)c1cc(-c2ccccc2)nnc1NCCN1CCOCC1` was 6.85.

`NCCCc1ccccc1` returned a pKa (basic group) of 10.3. Consider `O=Cc1ccc(-c2ncc(-c3ccccc3)o2)cc1`, for which the pKa (basic group) amounted to 0.02. Under “acidic group”, `Cn1cccc1C(=O)O` displayed a pKa of 4.51. In turn, `C/C(=C(\CCO)SSCCC(C)C)N(C=O)Cc1cnc(C)nc1N` came in with a pKa (basic group) of 5.58. As for `CC(C)(C)O`, the pKa (acidic group) was found to be 17. In turn, `CC[NH+](CC)Cc1cc(Cl)ccc1O` yielded a pKa (acidic group) of 8.11.

In turn, `O=C([O-])[C@]12CNCC[C@H]1O2` registered a pKa (basic group) of 9.14. As to `O=C(O)C1=C(CO)CC1`, the pKa (acidic group) came out at 4.16.

`CCC#CC#CC(=O)O`: where the note is “acidic group”, the pKa was determined as 1.91. Same read-out and setting: for `O=C1CC(=O)CC2(CCCCC2)C1` the value was 5.2; for `Nc1ccc(O)cc1[O-]`, 11.3. The same measure, in the same setting: the value for `O=C(O)CCc1c[nH]c[nH+]1` was 4; that for `Cc1ccccc1NCCS` was 9.6. For `N#CC1CC2CCN1CC2` (stereo not drawn), the pKa (basic group) was found to be 5.85.

Regarding `NCCCCCN`, under “basic group”, the pKa amounted to 10.8. `Cc1cc(O)ccc1[N+](C)(C)C` displayed a pKa (acidic group) of 8.34. With `[O-]c1ccc(O)cc1Br`, the pKa (acidic group) was found to be 10.7.

On to `C=CCN1CCCCC1`, for which, for the setting “basic group”, the pKa was found to be 9.66.

Regarding `CN(C)/C=N/c1ccccc1Br`, the pKa (basic group) was determined as 6.71. Same read-out and setting: the value for `CCN(CC)CCCNS(=O)(=O)c1ccc(OC)c(OC)c1OC` was 9.54; that for `Cc1nc2ncccc2[nH]1` was 4.6. The same measure, in the same setting: the value for `C=C(C)C(=O)OCCNCC` was 9.15; that for `CCN(C)c1ccccc1` was 6.02; that for `CCN1CCC[C@@H]1CNC(=O)c1c(OC)ccc([N+](=O)[O-])c1[O-]` was 9.12. Take `CC(=O)C1CCCC1=O` (stereo not drawn): the pKa (acidic group) is 7.82. `Cn1cnc2nc(N)[nH+]c(O)c21` displayed a pKa (acidic group) of 3.57. For `Cc1cc(O)nn1-c1ccccc1C(=O)[O-]`, under “acidic group”, the pKa was determined as 12.2. For the setting “basic group”, `Nc1ccc(C=O)cc1` came in with a pKa of 1.74. `[O-]/C(O)=C1\SCc2ccccc21` registered a pKa (acidic group) of 12.8. Where the note is “acidic group”, `Cc1cc(C)c(O)c(C)c1` displayed a pKa of 10.9.

On to `O=C(O)c1ccccc1-c1ccccc1`, for which the pKa (acidic group) was 3.46. In turn, `COc1ccc(-c2cnc(-c3ccc(N)cc3)o2)cc1` yielded a pKa (basic group) of 3.22.

In general, pKa refers to the negative logarithm of the acid dissociation constant. A lower pKa goes with a group that gives up its proton readily.
